Test results: ChEMBL document CHEMBL5653598, “In vivo antitumor activity of NVP-AEW541-A novel, potent, and selective inhibitor of the IGF-IR kinase” (Cancer Cell, 2004)
The source made the active and inactive calls. The rule behind the calls is not given here.

Columns and labels:
[1] = Toxicity in Hsd athymic nude mouse xenografted with NWT-21 cells assessed as body weight at 20 to 50 mg/kg, po bid administered for 7 weeks; format: organism-based; settings: in vivo, 1176 h, dose 20-50 mg/kg
[2] = target: Proto-oncogene tyrosine-protein kinase Src (Gallus gallus, UniProt P00523); test: Inhibition of GST tagged chicken c-Src expressed in baculovirus at pH 7.5 measured after 10 mins in presence of gamma-[33P]-ATP by scintillation counter analysis
Angiopoietin-1 receptor = Angiopoietin-1 receptor (Homo sapiens, UniProt Q02763); test: Inhibition of GST tagged Tek (unknown origin) expressed in baculovirus at pH 7.6 measured after 10 to 30 mins in presence of gamma-[33P]-ATP by scintillation counter analysis
[3] = Inhibition of PDGFR (unknown origin) in mouse BALB/3T3 clone A31 cells assessed as inhibition of autophosphorylation of PDGFR incubated for 90 mins followed by PDGF BB stimulation measured after 10 mins in presence of anti-PDGF-R Receptor Type A/B antibody by ELISA analysis; format: cell-based; settings: Homo sapiens
Mus musculus [4] = species: Mus musculus; settings: Harlan, dose 50.0 mg/kg, route po, time 1.0 hrs
NWT-21 [5] = test: Antitumor activity against mouse NWT-21 cells xenografted in Hsd athymic nude mouse assessed as plasma glucose level at 50 mg/kg, po bid measured after 10 days; format: functional; settings: time 10 day
NWT-21 [6] = settings: Mus musculus, dose 50.0 mg/kg, route po, time 1.0 hrs
Mus musculus [7] = species: Mus musculus; settings: Harlan, dose 50.0 mg/kg, route po, time 1.0 hrs; remark: listed apart in the source
NWT-21 [8] = test: Antitumor activity against mouse NWT-21 cells xenografted in Hsd athymic nude mouse assessed as inhibition of tumor growth at 30 mg/kg, po bid administered for 7 weeks relative to control; format: functional; settings: NWT-21, 1176 h, read-out: GI
[9] = target: Vascular endothelial growth factor receptor 3 (Homo sapiens, UniProt P35916); test: Inhibition of GST tagged human Flt-4 expressed in baculovirus at pH 7.6 measured after 15 mins in presence of gamma-[33P]-ATP by scintillation counter analysis
Insulin receptor [10] = target: T1, Insulin receptor (Homo sapiens, UniProt P06213); test: Inhibition of Ins-R in A14 [Human melanoma] cells assessed as inhibition of autophosphorylation of Ins-R incubated for 90 mins followed by insulin stimulation measured after 10 mins by ELISA analysis; format: cell-based
[11] = target: Hepatocyte growth factor receptor (Homo sapiens, UniProt P08581); test: Inhibition of GST tagged c-Met (unknown origin) expressed in baculovirus at pH 7.6 measured after 10 to 30 mins in presence of gamma-[33P]-ATP by scintillation counter analysis
[12] = target: T2, Mast/stem cell growth factor receptor Kit (Homo sapiens, UniProt P10721); test: Inhibition of GST tagged c-Kit (unknown origin) expressed in baculovirus at pH 7.6 measured after 10 to 30 mins in presence of gamma-[33P]-ATP by scintillation counter analysis
NWT-21 [13] = test: Antitumor activity against mouse NWT-21 cells xenografted in Hsd athymic nude mouse assessed as inhibition of tumor growth at 20 mg/kg, po bid administered for 7 weeks relative to control; format: functional; settings: NWT-21, po, 1176 h
Insulin receptor [14] = target: T1, Insulin receptor; test: Inhibition of GST tagged human Ins-R expressed in baculovirus at pH 7.6 measured after 20 mins in presence of gamma-[33P]-ATP by scintillation counter analysis
NWT-21 [15] = test: Antitumor activity against mouse NWT-21 cells xenografted in Hsd athymic nude mouse assessed as inhibition of tumor growth at 50 mg/kg, po bid administered for 7 weeks relative to control; format: functional; settings: NWT-21, 1176 h
[16] = target: T2, Mast/stem cell growth factor receptor Kit; test: Inhibition of c-Kit (unknown origin) in human GIST882 cells assessed as inhibition of autophosphorylation of c-Kit incubated for 90 mins in presence of anti-CD117 antibody by ELISA analysis; format: cell-based
[17] = target: Platelet-derived growth factor receptor beta (Homo sapiens, UniProt P09619); test: Inhibition of GST tagged PDGFR-beta (unknown origin) expressed in baculovirus at pH 7.6 measured after 10 to 30 mins in presence of gamma-[33P]-ATP by scintillation counter analysis
Mus musculus [18] = species: Mus musculus; settings: Harlan, dose 50.0 mg/kg, route po, time 1.0 hrs; remark: listed apart in the source
[19] = target: Vascular endothelial growth factor receptor 1 (Homo sapiens, UniProt P17948); test: Inhibition of GST tagged Flt-1 (unknown origin) expressed in baculovirus at pH 7.6 measured after 10 to 30 mins in presence of gamma-[33P]-ATP by scintillation counter analysis
NWT-21 [20] = settings: Mus musculus, dose 50.0 mg/kg, route po, time 1.0 hrs; remark: listed apart in the source
NWT-21 [21] = test: Antitumor activity against mouse NWT-21 cells xenografted in Hsd athymic nude mouse assessed as plasma insulin level at 50 mg/kg, po bid measured after 1 day; format: functional
[22] = Inhibition of rabbit PKA expressed in baculovirus at pH 7.0 measured after 20 mins in presence of gamma-[33P]-ATP by scintillation counter analysis; set-up: species or system Oryctolagus cuniculus
[23] = target: Fibroblast growth factor receptor 1 (Homo sapiens, UniProt P11362); test: Inhibition of GST tagged FGFR-1 (unknown origin) expressed in baculovirus at pH 7.6 measured after 10 to 30 mins in presence of gamma-[33P]-ATP by scintillation counter analysis
[24] = target: RAF proto-oncogene serine/threonine-protein kinase (Homo sapiens, UniProt P04049); test: Inhibition of GST-tagged c-Raf-1 (unknown origin) expressed in baculovirus infected in Sf21 cells at pH 7.5 measured after 30 mins in presence of gamma-[33P]-ATP by scintillation counter analysis
[25] = target: Receptor tyrosine-protein kinase erbB-2 (Homo sapiens, UniProt P04626); test: Inhibition of GST tagged human HER-2 expressed in baculovirus at pH 7.5 measured after 15 mins in presence of gamma-[33P]-ATP by scintillation counter analysis
[26] = target: Tyrosine-protein kinase ABL1 (Homo sapiens, UniProt P00519); test: Inhibition of GST tagged c-Abl (unknown origin) expressed in baculovirus infected Sf9 cells at pH 7.5 measured after 10 mins in presence of gamma-[33P]-ATP by scintillation counter analysis
NWT-21 [27] = test: Antitumor activity against mouse NWT-21 cells xenografted in Hsd athymic nude mouse assessed as plasma insulin level at 50 mg/kg, po bid measured after 10 day; format: functional
[28] = target: RAC-alpha serine/threonine-protein kinase (Homo sapiens, UniProt P31749); test: Inhibition of human PKB expressed in baculovirus at pH 7.2 measured after 30 mins in presence of gamma-[33P]-ATP by scintillation counter analysis
[29] = target: T3, Epidermal growth factor receptor (Homo sapiens, UniProt P00533); test: Inhibition of GST tagged human HER-1 expressed in baculovirus at pH 7.5 measured after 15 mins in presence of gamma-[33P]-ATP by scintillation counter analysis
NWT-21 [30] = settings: Mus musculus, dose 50.0 mg/kg, route po, time 1.0 hrs; remark: listed apart in the source
[31] = target: Receptor tyrosine-protein kinase erbB-4 (Homo sapiens, UniProt Q15303); test: Inhibition of GST tagged human HER-4 expressed in baculovirus at pH 7.5 measured after 15 mins in presence of gamma-[33P]-ATP by scintillation counter analysis
NWT-21 [32] = test: Antitumor activity against mouse NWT-21 cells xenografted in Hsd athymic nude mouse assessed as plasma glucose level at 50 mg/kg, po bid measured after 1 day; format: functional
[33] = target: T4, Receptor-type tyrosine-protein kinase FLT3 (Homo sapiens, UniProt P36888); test: Inhibition of GST tagged human Flt-3 expressed in baculovirus at pH 7.6 measured after 15 mins in presence of gamma-[33P]-ATP by scintillation counter analysis
T4 sequence (P36888 whole entry): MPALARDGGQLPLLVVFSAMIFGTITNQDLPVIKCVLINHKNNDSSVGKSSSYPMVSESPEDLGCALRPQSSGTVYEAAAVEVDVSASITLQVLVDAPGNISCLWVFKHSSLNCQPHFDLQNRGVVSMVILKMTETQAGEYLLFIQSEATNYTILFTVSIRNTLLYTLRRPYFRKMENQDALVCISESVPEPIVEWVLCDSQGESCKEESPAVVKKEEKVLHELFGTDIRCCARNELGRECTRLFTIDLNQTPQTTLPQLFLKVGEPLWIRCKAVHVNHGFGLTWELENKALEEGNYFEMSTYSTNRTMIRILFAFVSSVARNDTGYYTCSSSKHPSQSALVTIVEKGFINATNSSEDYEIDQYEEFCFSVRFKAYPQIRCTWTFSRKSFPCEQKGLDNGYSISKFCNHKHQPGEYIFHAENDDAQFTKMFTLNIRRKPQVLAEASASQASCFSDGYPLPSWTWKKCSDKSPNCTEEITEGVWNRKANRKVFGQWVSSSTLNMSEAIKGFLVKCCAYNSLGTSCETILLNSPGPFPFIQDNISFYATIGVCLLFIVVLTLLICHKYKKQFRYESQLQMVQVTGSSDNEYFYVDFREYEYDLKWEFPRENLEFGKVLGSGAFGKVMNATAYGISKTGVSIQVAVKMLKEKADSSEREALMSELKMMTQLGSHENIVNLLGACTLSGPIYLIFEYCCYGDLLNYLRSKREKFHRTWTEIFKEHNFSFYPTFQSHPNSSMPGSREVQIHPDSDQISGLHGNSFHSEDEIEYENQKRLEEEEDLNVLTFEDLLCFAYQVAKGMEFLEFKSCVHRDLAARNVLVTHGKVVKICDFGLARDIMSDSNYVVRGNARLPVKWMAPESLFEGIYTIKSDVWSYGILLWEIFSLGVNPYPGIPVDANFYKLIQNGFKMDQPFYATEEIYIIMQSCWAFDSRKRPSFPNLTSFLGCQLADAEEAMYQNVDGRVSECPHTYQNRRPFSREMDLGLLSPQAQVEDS

[34] = target: Vascular endothelial growth factor receptor 2 (Homo sapiens, UniProt P35968); test: Inhibition of GST tagged KDR (unknown origin) expressed in baculovirus at pH 7.6 measured after 10 to 30 mins in presence of gamma-[33P]-ATP by scintillation counter analysis
[35] = target: T3, Epidermal growth factor receptor; test: Inhibition of HER-1 in human A-431 cells assessed as inhibition of autophosphorylation of HER-1 incubated for 90 mins followed by EGF stimulation measured after 10 mins in presence of anti-EGFR Ab5 by ELISA analysis; format: cell-based
[36] = Inhibition of starfish Cdk1/cycB expressed in baculovirus at pH 8.0 measured after 30 mins in presence of gamma-[33P]-ATP by scintillation counter analysis; set-up: species or system Asteroidea
NWT-21 [37] = settings: Mus musculus, dose 50.0 mg/kg, route po, time 1.0 hrs; remark: listed apart in the source

T1 sequence (P06213 28-758 limits assumed): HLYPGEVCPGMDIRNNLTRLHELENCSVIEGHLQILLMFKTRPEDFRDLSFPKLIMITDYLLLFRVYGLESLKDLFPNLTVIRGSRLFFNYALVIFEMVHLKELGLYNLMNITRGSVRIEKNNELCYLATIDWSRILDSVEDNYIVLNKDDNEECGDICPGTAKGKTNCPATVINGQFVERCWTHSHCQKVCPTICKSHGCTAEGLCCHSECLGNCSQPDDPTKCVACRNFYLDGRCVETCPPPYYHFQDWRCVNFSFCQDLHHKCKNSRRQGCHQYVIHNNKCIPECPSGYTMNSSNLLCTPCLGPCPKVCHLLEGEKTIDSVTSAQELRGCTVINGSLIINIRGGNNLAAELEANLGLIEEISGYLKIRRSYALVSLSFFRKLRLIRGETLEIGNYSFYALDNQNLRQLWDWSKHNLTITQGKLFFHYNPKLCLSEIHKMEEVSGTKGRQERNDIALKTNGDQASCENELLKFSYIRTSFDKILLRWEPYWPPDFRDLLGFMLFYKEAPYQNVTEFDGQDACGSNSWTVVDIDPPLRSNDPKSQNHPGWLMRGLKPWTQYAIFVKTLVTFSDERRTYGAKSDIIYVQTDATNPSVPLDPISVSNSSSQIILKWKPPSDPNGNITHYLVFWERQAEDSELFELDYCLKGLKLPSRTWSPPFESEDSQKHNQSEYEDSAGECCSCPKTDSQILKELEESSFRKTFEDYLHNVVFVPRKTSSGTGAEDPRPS
T1 sequence (P06213 763-1382 limits assumed): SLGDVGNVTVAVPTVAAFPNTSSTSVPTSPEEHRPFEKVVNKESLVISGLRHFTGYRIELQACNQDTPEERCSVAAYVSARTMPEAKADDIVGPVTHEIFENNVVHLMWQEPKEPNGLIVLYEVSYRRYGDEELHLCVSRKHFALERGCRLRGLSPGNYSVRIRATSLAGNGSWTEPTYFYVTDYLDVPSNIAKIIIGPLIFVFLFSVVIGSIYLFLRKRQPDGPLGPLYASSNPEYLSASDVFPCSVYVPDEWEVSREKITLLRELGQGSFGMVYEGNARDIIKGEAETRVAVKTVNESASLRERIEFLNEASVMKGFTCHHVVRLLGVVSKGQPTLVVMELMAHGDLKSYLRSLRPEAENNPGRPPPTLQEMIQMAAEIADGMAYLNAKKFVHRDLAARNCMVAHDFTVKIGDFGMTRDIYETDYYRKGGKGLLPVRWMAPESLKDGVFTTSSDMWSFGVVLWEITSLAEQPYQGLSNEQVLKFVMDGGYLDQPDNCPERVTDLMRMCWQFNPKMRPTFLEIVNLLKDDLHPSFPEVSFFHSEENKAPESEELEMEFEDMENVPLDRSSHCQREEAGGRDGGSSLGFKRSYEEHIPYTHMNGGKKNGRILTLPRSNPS
T2 sequence (P10721 whole entry): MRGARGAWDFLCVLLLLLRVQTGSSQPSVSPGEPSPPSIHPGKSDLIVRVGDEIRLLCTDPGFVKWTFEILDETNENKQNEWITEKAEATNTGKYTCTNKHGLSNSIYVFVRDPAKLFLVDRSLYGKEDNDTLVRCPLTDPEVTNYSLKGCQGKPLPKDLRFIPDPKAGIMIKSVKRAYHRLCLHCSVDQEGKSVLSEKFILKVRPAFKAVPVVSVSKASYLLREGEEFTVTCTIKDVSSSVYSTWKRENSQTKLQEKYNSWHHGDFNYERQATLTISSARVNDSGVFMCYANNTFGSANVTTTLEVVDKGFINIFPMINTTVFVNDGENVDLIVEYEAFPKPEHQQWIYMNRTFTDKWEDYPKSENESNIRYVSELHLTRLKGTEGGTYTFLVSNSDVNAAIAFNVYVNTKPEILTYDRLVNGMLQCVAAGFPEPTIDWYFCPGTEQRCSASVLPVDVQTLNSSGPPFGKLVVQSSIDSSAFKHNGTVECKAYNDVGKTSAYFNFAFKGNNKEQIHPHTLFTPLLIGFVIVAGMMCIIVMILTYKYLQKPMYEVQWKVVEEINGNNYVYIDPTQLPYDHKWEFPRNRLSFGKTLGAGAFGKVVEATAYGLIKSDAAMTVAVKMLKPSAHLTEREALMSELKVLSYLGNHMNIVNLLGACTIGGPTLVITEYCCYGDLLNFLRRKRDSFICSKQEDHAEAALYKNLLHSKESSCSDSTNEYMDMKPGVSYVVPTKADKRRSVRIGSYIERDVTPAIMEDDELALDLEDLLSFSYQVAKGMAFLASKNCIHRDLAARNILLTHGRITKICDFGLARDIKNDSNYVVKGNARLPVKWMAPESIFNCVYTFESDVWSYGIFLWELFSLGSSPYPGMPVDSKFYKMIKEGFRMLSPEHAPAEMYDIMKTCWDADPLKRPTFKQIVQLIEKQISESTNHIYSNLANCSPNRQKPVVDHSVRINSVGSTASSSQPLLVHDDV
T3 sequence (P00533 whole entry): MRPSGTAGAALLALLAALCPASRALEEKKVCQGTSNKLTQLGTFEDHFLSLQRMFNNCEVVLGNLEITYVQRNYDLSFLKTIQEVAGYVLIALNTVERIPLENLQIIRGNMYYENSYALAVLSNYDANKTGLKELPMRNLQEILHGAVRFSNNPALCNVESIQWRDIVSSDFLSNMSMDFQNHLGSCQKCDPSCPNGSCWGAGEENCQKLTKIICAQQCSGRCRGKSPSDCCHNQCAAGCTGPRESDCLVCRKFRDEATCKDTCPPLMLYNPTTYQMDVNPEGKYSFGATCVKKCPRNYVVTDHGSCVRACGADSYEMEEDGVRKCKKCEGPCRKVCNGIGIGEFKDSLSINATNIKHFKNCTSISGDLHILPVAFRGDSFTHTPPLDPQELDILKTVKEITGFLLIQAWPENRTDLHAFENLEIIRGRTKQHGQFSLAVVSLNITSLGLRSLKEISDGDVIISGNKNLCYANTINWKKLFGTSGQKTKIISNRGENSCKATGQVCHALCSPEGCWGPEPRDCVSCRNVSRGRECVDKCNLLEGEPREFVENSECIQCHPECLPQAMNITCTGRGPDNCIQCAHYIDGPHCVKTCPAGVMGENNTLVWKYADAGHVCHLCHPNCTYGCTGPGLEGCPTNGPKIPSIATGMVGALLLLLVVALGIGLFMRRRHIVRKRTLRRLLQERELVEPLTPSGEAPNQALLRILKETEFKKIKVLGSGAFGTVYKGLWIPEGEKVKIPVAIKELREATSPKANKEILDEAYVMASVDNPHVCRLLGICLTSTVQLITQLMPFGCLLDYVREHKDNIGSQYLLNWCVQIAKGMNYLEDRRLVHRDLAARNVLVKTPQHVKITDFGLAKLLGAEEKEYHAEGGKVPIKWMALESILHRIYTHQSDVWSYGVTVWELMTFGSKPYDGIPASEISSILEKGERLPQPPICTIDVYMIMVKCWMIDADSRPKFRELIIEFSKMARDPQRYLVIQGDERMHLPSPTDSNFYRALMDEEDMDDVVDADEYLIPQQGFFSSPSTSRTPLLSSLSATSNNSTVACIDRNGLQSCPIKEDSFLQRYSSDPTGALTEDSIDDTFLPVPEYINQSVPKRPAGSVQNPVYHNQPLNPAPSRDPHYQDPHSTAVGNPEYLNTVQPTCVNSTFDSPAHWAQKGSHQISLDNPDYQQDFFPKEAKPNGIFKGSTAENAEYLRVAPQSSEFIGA
Chain of Angiopoietin-1 receptor (Q02763 whole entry): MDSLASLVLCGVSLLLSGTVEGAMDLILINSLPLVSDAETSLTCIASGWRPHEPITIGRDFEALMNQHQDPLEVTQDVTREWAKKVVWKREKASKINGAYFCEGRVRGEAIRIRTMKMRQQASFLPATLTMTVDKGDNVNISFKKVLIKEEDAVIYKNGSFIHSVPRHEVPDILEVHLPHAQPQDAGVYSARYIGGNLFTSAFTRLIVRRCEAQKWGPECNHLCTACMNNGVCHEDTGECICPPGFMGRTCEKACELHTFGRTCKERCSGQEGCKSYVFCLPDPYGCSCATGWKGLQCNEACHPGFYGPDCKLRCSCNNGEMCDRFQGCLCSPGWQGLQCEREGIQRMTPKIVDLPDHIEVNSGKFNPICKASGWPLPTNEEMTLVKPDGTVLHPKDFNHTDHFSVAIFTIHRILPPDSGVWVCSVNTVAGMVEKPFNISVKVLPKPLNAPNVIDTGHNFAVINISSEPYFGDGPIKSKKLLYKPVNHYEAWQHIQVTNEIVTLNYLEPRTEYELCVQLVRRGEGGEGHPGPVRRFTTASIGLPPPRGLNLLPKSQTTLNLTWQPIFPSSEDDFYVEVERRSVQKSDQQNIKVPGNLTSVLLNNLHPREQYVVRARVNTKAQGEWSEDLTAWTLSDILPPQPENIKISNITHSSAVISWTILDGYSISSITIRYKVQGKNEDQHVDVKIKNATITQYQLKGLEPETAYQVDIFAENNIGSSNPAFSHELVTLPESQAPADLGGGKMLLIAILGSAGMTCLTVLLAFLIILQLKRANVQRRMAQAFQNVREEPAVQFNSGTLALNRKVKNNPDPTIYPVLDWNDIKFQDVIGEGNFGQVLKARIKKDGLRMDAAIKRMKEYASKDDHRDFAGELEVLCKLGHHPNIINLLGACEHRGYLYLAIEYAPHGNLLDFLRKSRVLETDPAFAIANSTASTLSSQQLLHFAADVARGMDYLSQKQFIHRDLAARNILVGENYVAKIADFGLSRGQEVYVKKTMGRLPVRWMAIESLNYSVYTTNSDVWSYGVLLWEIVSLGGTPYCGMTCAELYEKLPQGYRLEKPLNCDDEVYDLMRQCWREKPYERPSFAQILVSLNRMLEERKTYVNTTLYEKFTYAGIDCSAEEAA

Nc1ncnc2c1c(-c1cccc(OCc3ccccc3)c1)cn2[C@H]1C[C@@H](CN2CCC2)C1
Activity [1]: Non-Toxic
IC50 [2]: 2400 nM
IC50 (Angiopoietin-1 receptor): 530 nM
IC50 [3]: > 10000 nM
inhibition (Mus musculus [4]): Active
Activity (NWT-21 [5]): 204.4 mg/dL
inhibition (NWT-21 [6]): Active
inhibition (Mus musculus [7]): Active
inhibition in vivo at 30 mg/kg (NWT-21 [8]): 28%
IC50 [9]: 2400 nM
IC50 (Insulin receptor [10]): 2300 nM
IC50 [11]: 3800 nM
IC50 [12]: 3300 nM
T/C at 20 mg/kg (NWT-21 [13]): 32%
IC50 (Insulin receptor [14]): 140 nM
T/C at 50 mg/kg (NWT-21 [15]): 14%
IC50 [16]: > 5000 nM
IC50 [17]: 2000 nM
inhibition (Mus musculus [18]): Active
IC50 [19]: 600 nM
inhibition (NWT-21 [20]): Active
Activity (NWT-21 [21]): 14.4 uU/ml
IC50 [22]: > 10000 nM
IC50 [23]: 4100 nM
IC50 [24]: > 10000 nM
IC50 [25]: 4100 nM
IC50 [26]: > 10000 nM
Activity (NWT-21 [27]): 28.9 uU/ml
IC50 [28]: > 10000 nM
IC50 [29]: 5800 nM
inhibition (NWT-21 [30]): Active
IC50 [31]: 1400 nM
Activity (NWT-21 [32]): 197.4 mg/dL
IC50 [33]: 420 nM
IC50 [34]: 2300 nM
IC50 [35]: > 10000 nM
IC50 [36]: > 10000 nM
inhibition (NWT-21 [37]): Active
